Reference: patent US8372847B2, “Pyrazinone modulator of corticotropin-releasing factor receptor activity” (Bristol-Myers Squibb Company, priority 2008, dated 2013)

Assays:
Male Sprague-Dawley rats [1] = settings: previous CRF1 antagonists, literature (McElroy 2002; Lelas 2004); cited from earlier work
Male Sprague-Dawley rats [2] = experiment: Situational anxiety behavioral model in rats (latency to exit dark cylinder into open field); format: in vivo, rat; settings: for lowest effective dose (decrease of exit latency): PO, 60 minutes before testing
Text: Situational Anxiety Behavioral Studies in Rats. (S)-4-(1-Cyclopropyl-2-methoxyethyl)-6-(6-(difluoromethoxy)-2,5-dimethylpyridin-3-ylamino)-5-oxo-4,5-dihydropyrazine-2-carbonitrile has been evaluated in a situational anxiety model to evaluate its anxiolytic potential. In this model, rats are placed in a small, darkened chamber located in an unfamiliar open field. Vehicle-treated rats spend most of the time within the chamber, consistent with a heightened state of anxiety [Takahashi L. K. et al, Behav. Neurosci. 103: 648-654, (1989)]. This model is sensitive to anxiolytics, including benzodiazepines such as chlordiazepoxide [Yang X-M. et al, J. Pharmacol. Exp. Ther. 255: 1064-1070, (1990)]. In addition, previous CRF1 antagonists, such as DMP696 and DMP904 [McElroy J. F. et al., Psychopharmacology 165: 86-92, (2002); Lelas S. et al., J. Pharmacol. Exp. Ther. 309: 293-302, (2004)] were effective this model. The effects of (S)-4-(1-cyclopropyl-2-methoxyethyl)-6-(6-(difluoromethoxy)-2,5-dimethylpyridin-3-ylamino)-5-oxo-4,5-dihydropyrazine-2-carbonitrile were compared with those of anxiolytic standards chlordiazepoxide (Librium®) and diazepam (Valium®) in this model. Male Sprague-Dawley rats weighing 180-300 g were purchased from Charles River Laboratories (Wilmington, Mass.). The rats were housed individually in suspended wire cages in colony rooms maintained at a constant temperature (21±2° C.) and humidity (50±10%). The rooms were illuminated 12 hours per day. The rats had ad libitum access to food and water throughout the studies. Behavioral studies were conducted between 0600 and 1300 h. Animals were maintained in accordance with the guidelines of the Animal Care and Use Committee of the Bristol-Myers Squibb Company, the “Guide for Care and Use of Laboratory Animals” (Institute of Animal Laboratory Resources, 1996), and the guidelines published in the National Institutes of Health Guide for the Care and Use of Laboratory Animals. Research protocols were approved by the Bristol-Myers Squibb Company Animal Care and Use Committee. All compounds were prepared in 0.25% methylcellulose and administered PO. Chlordiazepoxide, diazepam, and desipramine were purchased from Sigma Chemical Company. (S)-4-(1-Cyclopropyl-2-methoxyethyl)-6-(6-(difluoromethoxy)-2,5-dimethylpyridin-3-ylamino)-5-oxo-4,5-dihydropyrazine-2-carbonitrile was dosed in the volume of 2 ml/kg. All standards were dosed in the volume of 2 ml/kg. For all tests, data were analyzed by analysis of variance, followed by Dunnett's t-tests for individual comparisons. The significance value was set at 0.05. The data are presented in the text and figures as mean±standard error of the mean (SEM). Male Sprague-Dawley rats were habituated to handling and dosing the day before testing. On the day of testing, all compounds were administered PO by gavage 60 minutes before behavioral testing. To initiate testing, each animal was placed in a small galvanized steel cylinder (14 cm length, 10 cm diameter), which was placed lengthwise against one wall of an illuminated open field (106 cm length×92 cm width×50 cm height). The open field was illuminated by a 60-W incandescent bulb and illumination was titrated by a powerstat transformer to a 30-lux reading at the entrance to the cylinder. Behavior was assessed for 15 minutes by a trained observer unaware of treatment assignment. The latency of the animal to exit the cylinder, defined by the placement of all four paws into the open field, and explore the open field was recorded (in seconds). […] The Plexiglas chamber and the cylinder were cleaned with 1.0% glacial acetic acid between animals to prevent olfactory cues from influencing the behavior of subsequently tested animals. Following behavioral testing, animals were sacrificed and plasma samples and brains were taken for analysis of plasma exposure and central receptor occupancy.

[3] = 3.0 mg/kg PO, benzodiazepine standard studies
[4] = 10 mg/kg PO, benzodiazepine standard studies

SMILES	effectiveness in the situational anxiety model (Male Sprague-Dawley rats [1])	decrease in exit latency relative to vehicle-treated controls (Male Sprague-Dawley rats [2]; 1.0 mg/kg PO, benzodiazepine standard study) [%]	decrease in exit latency relative to vehicle-treated controls (Male Sprague-Dawley rats [2]; [3]) [%]	decrease in exit latency relative to vehicle-treated controls (Male Sprague-Dawley rats [2]; [4]) [%]	lowest effective dose (decrease of exit latency) (Male Sprague-Dawley rats [2]) [mg/kg]	decrease in exit latency relative to vehicle-treated controls (Male Sprague-Dawley rats [2]; 30 mg/kg PO, benzodiazepine standard study) [%]	decrease in exit latency relative to vehicle-treated controls (Male Sprague-Dawley rats [2]; 100 mg/kg PO, benzodiazepine standard study) [%]
CCC(CC)Nc1cc(C)nc2c(-c3ccc(OC)cc3C)c(C)nn12 [DMP904]	effective						
CN1C(=O)CN=C(c2ccccc2)c2cc(Cl)ccc21 [diazepam]		62	69	91	1.0		
CNC1=Nc2ccc(Cl)cc2C(c2ccccc2)=[N+]([O-])C1 [chlordiazepoxide]			58	97	3.0	72	54
